In paper PMC3129046, “Engineering Laccases: In Search for Novel Catalysts” (Current Genomics, 2011):

Target: T1, LAC3 (Trametes sp. C30, UniProt Q6TH77)
T1 construct: lac3 cDNA in pYES-DEST52 under GAL1 promoter, secreted by Saccharomyces cerevisiae W303-1A; 501 aa, calc
T1 sequence (Q6TH77 24-524): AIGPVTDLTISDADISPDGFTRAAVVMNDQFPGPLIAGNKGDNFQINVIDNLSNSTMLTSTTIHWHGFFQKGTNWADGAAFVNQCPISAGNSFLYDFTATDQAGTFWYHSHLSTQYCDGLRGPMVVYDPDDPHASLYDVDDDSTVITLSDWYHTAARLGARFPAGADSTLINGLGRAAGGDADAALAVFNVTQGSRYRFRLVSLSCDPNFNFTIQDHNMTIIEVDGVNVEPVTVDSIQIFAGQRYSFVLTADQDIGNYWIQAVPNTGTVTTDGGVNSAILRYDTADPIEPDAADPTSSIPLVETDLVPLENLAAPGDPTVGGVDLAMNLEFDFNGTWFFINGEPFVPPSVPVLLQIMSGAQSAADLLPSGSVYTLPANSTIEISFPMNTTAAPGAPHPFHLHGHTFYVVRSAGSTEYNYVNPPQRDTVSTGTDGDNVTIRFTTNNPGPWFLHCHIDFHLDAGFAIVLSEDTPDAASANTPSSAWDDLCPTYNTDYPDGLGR
Assay: brown halo on agar plate
Type: cell-based
Settings: secreted recombinant enzyme, selective medium SGal URA

`COc1ccccc1O` [2-methoxyphenol] was tested, and the “brown halo on agar plate” value was “brown coloration resulting from the oxidation of the substrate 2-methoxyphenol by laccases”.
